What all share (assay): relative viability (nuclei count vs DMSO), 5 days (fraction); higher = more cells survive
Compound in assay [1]: N=C1NC(=O)/C(=C/c2ccc(O)cc2)S1 [Mirin] + C[C@]1(O)C[C@@H](c2nc(-c3ccc4ccc(-c5ccccc5)nc4c3)c3c(N)nccn32)C1 [Linsitinib] (partner 1 µM)
The gist of the method: (§1)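 Relative viability divides the nuclei count in treated wells by that in vehicle wells. Lung cancer cell lines were seeded in 1536-well plates, dosed by pin tool the next day, and fixed and stained after 5 days in one step with final 0.05% Triton X-100, 1% formaldehyde and 1 ug/ml Hoechst. Dosing was a single drug or a fixed anchor-drug dose plus five library-drug doses (not always all listed) in √10 steps, and values are medians of duplicate plates imaged at 4×.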

Compound in assay [2]: CCC1=CN=CN=C1N2CCN(CC2)CC3=NC4=C(N3)C=C(C=C4)C(F)(F)F + Nc1nc2[nH]cc(CCc3ccc(C(=O)N[C@@H](CCC(=O)O)C(=O)O)cc3)c2c(=O)[nH]1 [Pemetrexed] (partner 0.2 µM)
The gist of the method:
as §1

Compound in assay [3]: CCC1=CN=CN=C1N2CCN(CC2)CC3=NC4=C(N3)C=C(C=C4)C(F)(F)F + Cc1nc(NC(=O)N2CCC[C@H]2C(N)=O)sc1-c1ccnc(C(C)(C)C(F)(F)F)c1 [Alpelisib] (partner 2 µM)
The gist of the method: as §1

Compound in assay [4]: N=C1NC(=O)/C(=C/c2ccc(O)cc2)S1 [Mirin] + CS(=O)(=O)N1CCN(Cc2cc3nc(-c4cccc5[nH]ncc45)nc(N4CCOCC4)c3s2)CC1 [Pictilisib] (partner 1 µM)
Put shortly:
as §1

UMC-11: the relative viability in assay [1] (first compound 0.25 µM) stood at 1; in assay [1] (first compound 0.7906 µM) it was 0.963; in assay [1] (first compound 2.5 µM), 1.07; in assay [1] (first compound 7.906 µM), 0.803; in assay [1] (first compound 25 µM), 0.66; in assay [2] (first compound 0.04 µM) it was 0.772. Further, the relative viability in assay [2] (first compound 0.1265 µM) came to 0.767; in assay [2] (first compound 0.4 µM), 0.83; in assay [2] (first compound 1.265 µM) it was 0.761; in assay [2] (first compound 4 µM), 0.724; in assay [3] (first compound 0.04 µM) it was 0.973; in assay [3] (first compound 0.1265 µM), 1.07. Also, the relative viability is 0.959 in assay [3] (first compound 0.4 µM); 0.906 in assay [3] (first compound 1.265 µM); 0.871 in assay [3] (first compound 4 µM); 0.798 in assay [4] (first compound 0.25 µM); 0.164 in assay [4] (first compound 0.7906 µM); 0.849 in assay [4] (first compound 2.5 µM). For the same cell line, the relative viability in assay [4] (first compound 7.906 µM) was determined as 0.509; in assay [4] (first compound 25 µM) it was 0.4.

Values taken from the supplement of paper PMC10307832.
